The text below walks through data of ChEMBL document CHEMBL4680140, “Minor chemical modifications of the aminosteroid derivative RM-581 lead to major impact on its anticancer activity, metabolic stability and aqueous solubility” (Eur J Med Chem, 2020).

The subject of series [1] is PANC-1. Description: Antiproliferative activity against human PANC-1 cells assessed as reduction in cell viability at 1 to 5 uM after 72 hrs by MTS assay. The series is classed as functional, cell-based. The conditions noted are these: dose 1-5 µM. Background: Tetrazolium assays rely on reduction of a dye to a coloured formazan, in cell work by metabolically active cells.

The subject of series [2] is LNCaP. The experiment in a line: Antiproliferative activity against human LNCaP cells assessed as reduction in cell viability after 72 hrs by MTS assay. The class given is functional, cell-based.
Series [3] concerns PANC-1. Description: Antiproliferative activity against human PANC-1 cells assessed as reduction in cell viability after 72 hrs by MTS assay. The class given is functional, cell-based. The conditions noted are these: PANC-1, 72 h.
The subject of series [4] is T47D. Description: Antiproliferative activity against human T47D cells assessed as reduction in cell viability after 72 hrs by MTS assay. The class given is functional, cell-based.
For series [5], the system named is BXPC-3. Description: Antiproliferative activity against human BXPC-3 cells assessed as reduction in cell viability at 1 to 5 uM after 72 hrs by MTS assay. The class given is functional, cell-based. As to conditions: dose 1-5 µM.
Series [6] has as its system MCF7. The experiment in a line: Antiproliferative activity against human MCF7 cells assessed as reduction in cell viability after 72 hrs by MTS assay. The conditions noted are these: MCF7, 72 h. The class given is functional, cell-based.
The nature of series [7]: Stability in human liver s9 fraction assessed as parent compound remaining at 10 uM after 1 hr by LC-MS analysis. The series is classed as ADME, subcellular. As to conditions: read-out: Stabilty.
The subject of series [8] is PC-3. Description: Antiproliferative activity against human PC-3 cells assessed as reduction in cell viability after 72 hrs by MTS assay. The series is classed as functional, cell-based. The conditions noted are these: PC-3, 72 h.
Series [9] concerns OVCAR-3. The experiment in a line: Antiproliferative activity against human OVCAR-3 cells assessed as reduction in cell viability at 1 to 5 uM after 72 hrs by MTS assay. The series is classed as functional, cell-based. As to conditions: dose 1-5 µM.
For series [10], the system named is LAPC4. The experiment in a line: Antiproliferative activity against human LAPC4 cells assessed as reduction in cell viability at 1 to 5 uM after 72 hrs by MTS assay. As to conditions: dose 1-5 µM. The series is classed as functional, cell-based.
The test system of series [11] is MCF7. The experiment in a line: Antiproliferative activity against human MCF7 cells assessed as reduction in cell viability at 1 to 5 uM after 72 hrs by MTS assay. The class given is functional, cell-based. The conditions noted are these: dose 1-5 µM.
In series [12] the test system is Hs 766. Description: Antiproliferative activity against human Hs 766 cells assessed as reduction in cell viability at 1 to 5 uM after 72 hrs by MTS assay. The class given is functional, cell-based. The conditions noted are these: dose 1-5 µM.
In series [13] the test system is Caov-3 cell line. Description: Antiproliferative activity against human Caov-3 cells assessed as reduction in cell viability at 1 to 5 uM after 72 hrs by MTS assay. The class given is functional, cell-based. The conditions noted are these: dose 1-5 µM.
Series [14] has as its system OVCAR-3. The experiment in a line: Antiproliferative activity against human OVCAR-3 cells assessed as reduction in cell viability after 72 hrs by MTS assay. The class given is functional, cell-based. As to conditions: OVCAR-3, 72 h.
Series [15] deals with SK-OV-3. The experiment in a line: Antiproliferative activity against human SK-OV-3 cells assessed as reduction in cell viability at 1 to 5 uM after 72 hrs by MTS assay. The class given is functional, cell-based. The conditions noted are these: dose 1-5 µM.
In series [16] the test system is LAPC4. The experiment in a line: Antiproliferative activity against human LAPC4 cells assessed as reduction in cell viability after 72 hrs by MTS assay. The conditions noted are these: LAPC4, 72 h. The series is classed as functional, cell-based.
Series [17] relates to T47D. Description: Antiproliferative activity against human T47D cells assessed as reduction in cell viability at 1 to 5 uM after 72 hrs by MTS assay. The conditions noted are these: dose 1-5 µM. The series is classed as functional, cell-based.

SMILES strings stand for the structures. pIC50: −log10 of the molar value. The source made the active and inactive calls. The calls are words filed in the database; no cut-off is given here.

As usually defined, the pIC50 is −log10 of the IC50, conventionally taken in molar units. In the case of `C#C[C@]1(O)CC[C@H]2[C@@H]3CCc4cc(OC)c(CN5CCN(C(=O)[C@@H]6CCCN6C(=O)c6ccc7ccccc7n6)CC5)cc4[C@H]3CC[C@@]21C`, the outcome in series [1], in series [5], in series [9], in series [10], in series [11] and in [12] was Active. The outcome in series [13], in series [15] and in series [17] was Active. Moreover, the pIC50 in series [2] is 5.89; in series [3], 5.59; in series [4] it was 6.40; in series [6], 5.64; in [8] it was 5.77; in series [14], 5.30. In series [16], the pIC50 is 6.15. The remaining at 1 h, 10 µM in series [7] was determined as 76%.
Consider `C#C[C@]1(O)CC[C@H]2[C@@H]3CCc4cc(C(C)=O)c(N5CCN(C(=O)[C@@H]6CCCN6C(=O)c6ccc7ccccc7n6)CC5)cc4[C@H]3CC[C@@]21C`, for which the outcome in [1], in [5], in series [9], in series [10], in series [11] and in series [12] was inactive. In addition, the outcome in series [13], in series [15] and in [17] was inactive. Further, in [7], the remaining at 1 h, 10 µM came out at 52%.
In the case of `C#C[C@]1(O)CC[C@H]2[C@@H]3CCc4cc(OC)c(C(=O)N5CCN(C(=O)[C@@H]6CCCN6C(=O)c6ccc7ccccc7n6)CC5)cc4[C@H]3CC[C@@]21C`, the result in [1], in series [5], in [9], in [10], in series [11] and in series [12] was Active. In addition, the result in series [13], in series [15] and in series [17] was Active. The pIC50 in [2] was 6.10; in [3], 5.46; in [4], 6.52; in series [6] it was 5.66; in series [8] it was 5.77; in series [14], 5.28. Also, the pIC50 in [16] was 6.30. The remaining at 1 h, 10 µM in series [7] turned out to be 52%.
Turning to `C#Cc1cc2c(cc1N1CCN(C(=O)[C@@H]3CCCN3C(=O)c3ccc4ccccc4n3)CC1)[C@H]1CC[C@@]3(C)[C@@H](CC[C@@]3(O)C#C)[C@@H]1CC2`, the remaining at 1 h, 10 µM in series [7] came to 52%.
Take `CC(=O)O[C@H]1C(=O)[C@@]2(C)[C@H]([C@H](OC(=O)c3ccccc3)[C@]3(O)C[C@H](OC(=O)[C@H](O)[C@@H](NC(=O)c4ccccc4)c4ccccc4)C(C)=C1C3(C)C)[C@]1(OC(C)=O)CO[C@@H]1C[C@@H]2O`: the result in series [17] was Active.
On the same count and under the same terms, next, `CCc1c2c(nc3ccc(OC(=O)N4CCC(N5CCCCC5)CC4)cc13)-c1cc3c(c(=O)n1C2)COC(=O)[C@]3(O)CC`: “Active”.
The same measure, in the same setting: as for `Nc1ccn([C@@H]2O[C@H](CO)[C@@H](O)C2(F)F)c(=O)n1`, the entry is “Active”; as for `O=c1[nH]cc(F)c(=O)[nH]1`, “Active”.
With `C#CC1(O)CC[C@H]2[C@@H]3CCc4cc(OC(=O)N(C)C)c(N5CCN(C(=O)[C@@H]6CCCN6C(=O)c6ccc7ccccc7n6)CC5)cc4[C@H]3CC[C@@]21C` (single isomer, unassigned), the outcome in series [1], in series [5], in series [9], in [10], in [11] and in series [12] was inactive. Also, the outcome in [13], in series [15] and in [17] was inactive. For the same molecule, the remaining at 1 h, 10 µM in series [7] stood at 52%.
As for `C#CC1(O)CC[C@H]2[C@@H]3CCc4cc(OC(C)=O)c(N5CCN(C(=O)[C@@H]6CCCN6C(=O)c6ccc7ccccc7n6)CC5)cc4[C@H]3CC[C@@]21C` (single isomer, unassigned), the outcome in [1], in series [5], in series [9], in series [10], in series [11] and in series [12] was Active. The result in [13], in [15] and in series [17] was Active. Also, the pIC50 in series [2] is 6.10; in series [3], 5.55; in series [4], 6.40; in [6], 5.85; in [8], 5.85; in [14], 5.41. Moreover, in series [16], the pIC50 was 6.30. Besides, the remaining at 1 h, 10 µM in series [7] stood at 76%.
For `C#CC1(O)CC[C@H]2[C@@H]3CCc4cc(OC(=O)N(CC)CC)c(N5CCN(C(=O)[C@@H]6CCCN6C(=O)c6ccc7ccccc7n6)CC5)cc4[C@H]3CC[C@@]21C` (single isomer, unassigned), the result in series [1], in series [5], in [9], in series [10], in series [11] and in [12] was inactive. Also, the result in series [13], in series [15] and in [17] was inactive. Also, the remaining at 1 h, 10 µM in series [7] stood at 52%.
On to `C#CC1(O)CC[C@H]2[C@@H]3CCc4ccc(N5CCN(C(=O)[C@@H]6CCCN6C(=O)c6ccc7ccccc7n6)CC5)cc4[C@H]3CC[C@@]21C` (single isomer, unassigned), for which the result in series [1], in series [5], in series [9], in series [10], in [11] and in [12] was inactive. Besides, the outcome in series [13], in series [15] and in [17] was inactive. For the same molecule, in [7], the remaining at 1 h, 10 µM was found to be 35%.
As for `C#CC1(O)CC[C@H]2[C@@H]3CCc4cc(C(C)O)c(N5CCN(C(=O)[C@@H]6CCCN6C(=O)c6ccc7ccccc7n6)CC5)cc4[C@H]3CC[C@@]21C` (single isomer, unassigned), the result in series [1], in [5], in [9], in series [10], in series [11] and in [12] was inactive. Besides, the result in [13], in [15] and in [17] was inactive. Also, the remaining at 1 h, 10 µM in [7] came to 35%.
In the case of `C#CC1(O)CC[C@H]2[C@@H]3CCc4cc(OS(N)(=O)=O)c(N5CCN(C(=O)[C@@H]6CCCN6C(=O)c6ccc7ccccc7n6)CC5)cc4[C@H]3CC[C@@]21C` (single isomer, unassigned), the result in series [1], in series [5], in series [9], in [10], in series [11] and in [12] was Active. Further, the result in series [13], in series [15] and in series [17] was Active. Moreover, the pIC50 is 6.05 in series [2]; 5.52 in series [3]; 6.70 in [4]; 5.92 in [6]; 5.80 in [8]; 5.51 in [14]. For the same molecule, the pIC50 in series [16] is 6.52. In [7], the remaining at 1 h, 10 µM was found to be 35%.
In the case of `C#CC1(O)CC[C@H]2[C@@H]3CCc4cc(O)c(N5CCN(C(=O)[C@@H]6CCCN6C(=O)c6ccc7ccccc7n6)CC5)cc4[C@H]3CC[C@@]21C` (single isomer, unassigned), the outcome in series [1], in series [5], in [9], in [10], in series [11] and in series [12] was Active. Further, the outcome in series [13], in series [15] and in series [17] was Active. Besides, the pIC50 is 5.96 in series [2]; 5.51 in series [3]; 6.30 in series [4]; 5.85 in series [6]; 5.85 in [8]; 5.36 in series [14]. In addition, the pIC50 in [16] is 6.40. For the same molecule, the remaining at 1 h, 10 µM in series [7] worked out at 35%.
